The target of the experiment is T1, human parathyroid cell Ca^2+ receptor (hPCaR) (Homo sapiens, UniProt P41180).
T1 construct: expressed in transfected cells
T1 sequence (P41180 20-1078): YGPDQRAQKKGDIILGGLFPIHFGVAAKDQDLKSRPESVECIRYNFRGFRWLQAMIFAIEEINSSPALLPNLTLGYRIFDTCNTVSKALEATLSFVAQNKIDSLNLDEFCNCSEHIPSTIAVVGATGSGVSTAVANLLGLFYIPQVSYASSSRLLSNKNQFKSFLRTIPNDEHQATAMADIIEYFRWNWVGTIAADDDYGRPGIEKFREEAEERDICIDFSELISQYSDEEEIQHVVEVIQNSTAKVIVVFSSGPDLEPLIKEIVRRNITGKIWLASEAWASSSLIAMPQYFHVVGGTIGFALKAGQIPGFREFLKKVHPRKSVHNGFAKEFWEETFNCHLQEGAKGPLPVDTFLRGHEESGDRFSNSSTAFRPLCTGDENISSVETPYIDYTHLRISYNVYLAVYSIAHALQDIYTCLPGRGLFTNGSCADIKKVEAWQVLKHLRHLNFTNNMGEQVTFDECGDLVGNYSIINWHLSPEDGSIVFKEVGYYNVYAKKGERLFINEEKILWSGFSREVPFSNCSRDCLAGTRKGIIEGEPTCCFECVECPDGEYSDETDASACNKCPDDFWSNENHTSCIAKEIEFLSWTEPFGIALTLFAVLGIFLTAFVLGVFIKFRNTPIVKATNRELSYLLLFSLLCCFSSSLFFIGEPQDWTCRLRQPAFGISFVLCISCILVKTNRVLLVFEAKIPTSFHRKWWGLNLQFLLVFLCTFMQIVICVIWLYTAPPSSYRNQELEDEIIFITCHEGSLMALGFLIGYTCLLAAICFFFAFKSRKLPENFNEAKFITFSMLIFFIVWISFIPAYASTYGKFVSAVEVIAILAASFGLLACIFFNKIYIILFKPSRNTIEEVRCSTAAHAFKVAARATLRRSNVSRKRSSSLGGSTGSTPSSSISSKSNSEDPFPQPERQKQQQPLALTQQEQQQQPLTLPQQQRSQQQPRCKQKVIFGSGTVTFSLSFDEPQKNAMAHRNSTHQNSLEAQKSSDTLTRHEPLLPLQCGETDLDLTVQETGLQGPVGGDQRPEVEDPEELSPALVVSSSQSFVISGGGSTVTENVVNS
Briefly: [Ca2+]i measurement with fluo-3 in HEK 293 4.0-7 cells stably transfected with hPCaR. It is filed as cell-based. To be noted: fluo-3 fluorescence (485/530 nm), effect on [Ca^2+]i. A digest of the protocol: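 Cytosolic [Ca2+] was read as fluo-3 fluorescence (ex 485/em 530 nm) after compound addition to washed cells. Cells were hPCaR-transfected HEK 293 clone 7, dye-loaded 30 min at 37 °C with 2 μM fluo-3 acetoxymethyl ester in HEPES-buffered saline pH 7.45 containing 1 mM CaCl2 and 0.5% BSA.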

A word on the EC50: it is the midpoint of the concentration-response curve. Read a high EC50 as weaker potency. The compound `COc1ccc(CN[C@H](C)c2ccccc2)cc1-c1ccc2c(c1)CCO2` [(1R)-N-((3-(2,3-dihydro-1-benzofuran-5-yl)-4-(methyloxy)phenyl)methyl)-1-phenylethanamine] gave an EC50 not above 10 µM. As for `CCOc1ccc(CN[C@H](C)c2ccccc2)cc1-c1ccc(OC)cc1` [(1R)-N-((6-(ethyloxy)-4′-(methyloxy)-1,1′-biphenyl-3-yl)methyl)-1-phenylethanamine], the figure is not above 10 µM; as for `CCOC(=O)N1CCC(c2cc(CN[C@H](C)c3cccc4ccccc34)ccc2OC)CC1` [ethyl 4-(2-(methyloxy)-5-((((1R)-1-(1-naphthalenyl)ethyl)amino)methyl)phenyl)-1-piperidinecarboxylate], not above 10 µM.

In turn, `COc1cccc([C@@H](C)NCc2ccc(OC)c(-c3ncccn3)c2)c1` [(1R)-1-(3-(methyloxy)phenyl)-N-((4-(methyloxy)-3-(2-pyrimidinyl)phenyl)methyl)ethanamine] had an EC50 not above 10 µM. `COc1ccc(CN[C@H](C)c2ccccc2)cc1-c1cn(C)cn1` [(1R)-N-((3-(1-methyl-1H-imidazol-4-yl)-4-(methyloxy)phenyl)methyl)-1-phenylethanamine] returned an EC50 not above 10 µM. In the case of `COc1cccc([C@@H](C)NCc2ccc(Cl)c(-c3ccc(OC(F)(F)F)cc3)c2)c1` [(1R)-N-((6-chloro-4′-((trifluoromethyl)oxy)-1,1′-biphenyl-3-yl)methyl)-1-(3-(methyloxy)phenyl)ethanamine], the EC50 was not above 10 µM. To `COc1ccc(CN[C@H](C)c2cccc3ccccc23)cc1-c1cccc(C(N)=O)c1` [2′-(methyloxy)-5′-((((1R)-1-(1-naphthalenyl)ethyl)amino)methyl)-1,1′-biphenyl-3-carboxamide] belongs not above 10 µM; to `Cc1ccc([C@@H](C)NCc2cccc(-c3ccc(C)c(C)c3)c2)cc1` [(1R)-N-((3′,4′-dimethyl-1,1′-biphenyl-3-yl)methyl)-1-(4-methylphenyl)ethanamine], not above 10 µM. As for `COc1ccc(CN[C@H](C)c2cccc3ccccc23)cc1-c1cccs1` [(1R)-N-((4-(methyloxy)-3-(2-thienyl)phenyl)methyl)-1-(1-naphthalenyl)ethanamine], the figure is not above 10 µM.

The compound `COc1ccc([C@@H](C)NCc2cccc(-c3ccoc3)c2)cc1` [Example 223, (1R)-N-((3-(3-furanyl)phenyl)methyl)-1-(4-(methyloxy)phenyl)ethanamine] registered an EC50 not above 10 µM. To `COc1cccc([C@@H](C)NCc2ccc(OC)c(-c3cccc(OC(F)(F)F)c3)c2)c1` [(1R)-1-(3-(methyloxy)phenyl)-N-((6-(methyloxy)-3′-((trifluoromethyl)oxy)-1,1′-biphenyl-3-yl)methyl)ethanamine] belongs not above 10 µM; to `COc1ccc(CN[C@H](C)c2ccccc2)cc1-c1ncccn1` [(1R)-N-((4-(methyloxy)-3-(2-pyrimidinyl)phenyl)methyl)-1-phenylethanamine], not above 10 µM. As for `COc1cccc([C@@H](C)NCc2ccc(OC)c(-c3ccc4c(c3)OC(F)(F)O4)c2)c1` [(1R)-N-((3-(2,2-difluoro-1,3-benzodioxol-5-yl)-4-(methyloxy)phenyl)methyl)-1-(3-(methyloxy)phenyl)ethanamine], the figure is not above 10 µM; as for `COc1ccc(CN[C@H](C)c2cccc3ccccc23)cc1-c1ncccn1` [(1R)-N-((4-(methyloxy)-3-(2-pyrimidinyl)phenyl)methyl)-1-(1-naphthalenyl)ethanamine], not above 10 µM. In the case of `COc1ccc(CN[C@H](C)c2cccc3ccccc23)cc1-c1ccc2c(cnn2C)c1` [(1R)-N-((3-(1-methyl-1H-indazol-5-yl)-4-(methyloxy)phenyl)methyl)-1-(1-naphthalenyl)ethanamine], the EC50 is not above 10 µM. With `COc1cccc([C@@H](C)NCc2ccc(OC)c(-c3cccc(C(F)(F)F)c3)c2)c1` [(1R)-1-(3-(methyloxy)phenyl)-N-((6-(methyloxy)-3′-(trifluoromethyl)-1,1′-biphenyl-3-yl)methyl)ethanamine], the EC50 was not above 10 µM.
